Reference: patent US11066369B2, “N-(pyridin-2-yl)pyridine-sulfonamide derivatives and their use in the treatment of disease” (Novartis AG, priority 2016, dated 2021)
pEC50: −log10 of the molar value. Structures can show the parent of a compound that is named as a salt. Where two headings read alike, the source gives them in different places.

Experiments:
[1] = target: T1, horseradish peroxidase (HRP) tagged delF508-CFTR (Homo sapiens, UniProt P13569, DEL508-508); experiment: Measurement of delF508-CFTR-HRP surface expression in CFBE41o- cells; format: cell-based; settings: for Emax: read-out: DelF508-CFTR-HRP Amax %;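 for DelF508-CFTR-HRP Amax %: percent efficacy relative to reference corrector lumacaftor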
T1 construct: expressed in transfected cells
T1 sequence (P13569 with tags, fused parts or gaps DEL508-508): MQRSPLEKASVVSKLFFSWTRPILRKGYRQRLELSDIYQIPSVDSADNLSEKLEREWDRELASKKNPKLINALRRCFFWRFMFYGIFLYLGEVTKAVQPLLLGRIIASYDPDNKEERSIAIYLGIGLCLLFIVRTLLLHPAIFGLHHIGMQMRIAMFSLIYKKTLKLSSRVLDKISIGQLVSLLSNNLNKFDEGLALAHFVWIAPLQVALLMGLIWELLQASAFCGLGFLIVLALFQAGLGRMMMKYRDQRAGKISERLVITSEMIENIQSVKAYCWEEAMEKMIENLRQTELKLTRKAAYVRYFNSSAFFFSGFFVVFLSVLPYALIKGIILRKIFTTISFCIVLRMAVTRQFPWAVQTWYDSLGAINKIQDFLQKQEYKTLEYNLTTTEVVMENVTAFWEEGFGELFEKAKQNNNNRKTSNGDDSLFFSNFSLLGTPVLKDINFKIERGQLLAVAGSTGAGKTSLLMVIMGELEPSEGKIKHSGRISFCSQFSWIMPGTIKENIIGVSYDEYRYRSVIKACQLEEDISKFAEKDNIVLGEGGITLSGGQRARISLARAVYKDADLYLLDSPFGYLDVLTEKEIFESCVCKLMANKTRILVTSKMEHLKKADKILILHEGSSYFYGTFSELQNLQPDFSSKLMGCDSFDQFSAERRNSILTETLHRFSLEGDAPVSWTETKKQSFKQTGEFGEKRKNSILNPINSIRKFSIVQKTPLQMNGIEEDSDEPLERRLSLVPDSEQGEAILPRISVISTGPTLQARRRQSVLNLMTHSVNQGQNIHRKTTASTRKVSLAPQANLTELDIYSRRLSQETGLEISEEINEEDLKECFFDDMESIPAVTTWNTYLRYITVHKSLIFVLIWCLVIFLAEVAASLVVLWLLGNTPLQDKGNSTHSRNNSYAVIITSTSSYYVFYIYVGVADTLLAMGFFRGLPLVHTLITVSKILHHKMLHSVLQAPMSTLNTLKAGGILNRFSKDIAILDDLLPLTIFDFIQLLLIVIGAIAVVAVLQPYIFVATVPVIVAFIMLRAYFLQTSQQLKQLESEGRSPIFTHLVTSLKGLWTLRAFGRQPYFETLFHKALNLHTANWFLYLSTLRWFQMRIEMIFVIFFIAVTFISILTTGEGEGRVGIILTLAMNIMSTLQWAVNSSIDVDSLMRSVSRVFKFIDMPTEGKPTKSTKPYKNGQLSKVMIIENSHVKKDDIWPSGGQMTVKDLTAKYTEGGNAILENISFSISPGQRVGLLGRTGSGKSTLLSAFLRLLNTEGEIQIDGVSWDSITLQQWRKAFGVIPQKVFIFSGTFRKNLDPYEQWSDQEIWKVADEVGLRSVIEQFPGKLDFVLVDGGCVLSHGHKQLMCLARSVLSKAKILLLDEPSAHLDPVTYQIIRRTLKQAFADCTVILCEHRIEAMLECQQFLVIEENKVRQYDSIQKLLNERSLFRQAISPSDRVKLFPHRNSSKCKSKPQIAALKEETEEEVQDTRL
Procedure, shortened: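 CFBE41o- bronchial epithelial cells stably expressing delF508-CFTR with HRP in the fourth extracellular loop; expression induced 48h with 500 ng/mL doxycycline, then compounds added (top 10 μM, 10-point 3-fold series, ≤0.5% DMSO) for 24h at 37° C. Surface HRP measured by luminescence with cell-impermeant substrate; EC50 from logistic fit of triplicates, plate-normalized to lowest concentration; efficacy also relative to a reference corrector.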

delF508-CFTR = target: T2, delF508-CFTR (Homo sapiens, UniProt P13569, DEL508-508); experiment: Measurement of delF508-CFTR functional activity in primary human bronchial epithelial cells (HBECs) using Multi-Transepithelial Clamp Circuit (MTECC-24) assay; format: cell-based; settings: primary CF HBECs; for MTECC24 CFHBEC- Amax %: test compound added 24h before assay plus potentiator, relative to reference combination (2 μM corrector + 0.5 μM potentiator); for pEC50: test compound added 24h before assay, in the presence of potentiator, mean of at least two replicates, read-out: MTECC24 CFHBEC- EC50
T2 construct: functional activity of the CFTR channel (Chloride ion transport) in patient derived primary human bronchial epithelial cells; host or cells: patient-derived primary human bronchial epithelial cells (delF508-CFTR)
T2 sequence (P13569 with tags, fused parts or gaps DEL508-508): as above
Procedure, shortened: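 Patient-derived primary delF508-CFTR HBECs, differentiated at air-liquid interface ~2 weeks, treated basolaterally with compound for 24 h, then apical and basolateral compound in HEPES pH 7.4 assay medium. Equivalent short-circuit current (Ieq) recorded on MTECC-24 with sequential amiloride, forskolin, potentiator and INH-172; normalized to 0.1% DMSO, EC50 from curve fit.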

[2] = delF508-CFTR-HRP surface expression, CFBE41o- cells
[3] = delF508-CFTR-HRP surface expression, CFBE41o- cells, read-out: DelF508-CFTR-HRP EC50

In the case of `Cc1ccccc1-c1nc(NS(=O)(=O)c2cccc(N3C4CCCC3CC(C(=O)O)C4)n2)ccc1C(F)(F)F` (stereo not shown) [Example 345, 9-(6-{[6-(2-methylphenyl)-5-(trifluoromethyl)pyridin-2-yl]sulfamoyl}pyridin-2-yl)-9-azabicyclo[3.3.1]nonane-3-carboxylic Acid], the pEC50 [1] was 5.88, the Emax ([1]; CFBE41o-) was 557% and the “MTECC24 CFHBEC- Amax %” value (delF508-CFTR) was 90.4%. The pEC50 (delF508-CFTR) was 7.38.
In the case of `Cc1ccccc1-c1nc(NS(=O)(=O)c2cccc(N[C@@H]3COCC[C@@H]3O)n2)ccc1C(F)(F)F` (single isomer, unassigned) [Example 281], the Emax [1, 2] was 680%, the pEC50 [1, 3] was 5.70 and the “MTECC24 CFHBEC- Amax %” value (delF508-CFTR) was 85.9%. It also gave a pEC50 (delF508-CFTR) of 8.43.
`O=S(=O)(Nc1ccc(Cl)c(-c2ccc(F)cc2Cl)n1)c1cccc(N2CC(O)C2)n1` [Example 214, N-(5-chloro-6-(2-chloro-4-fluorophenyl)pyridin-2-yl)-6-(3-hydroxyazetidin-1-yl)pyridine-2-sulfonamide] was tested, and the Emax [1, 2] was 256%, the pEC50 [1, 3] was 5.69 and the “MTECC24 CFHBEC- Amax %” value (delF508-CFTR) was 71.1%. It also gave a pEC50 (delF508-CFTR) of 7.28.
With `Cc1ccccc1-c1nc(NS(=O)(=O)c2ccnc(N)c2)ccc1Cl` [Example 57, 2-amino-N-(5-chloro-6-(o-tolyl)pyridin-2-yl)pyridine-4-sulfonamide] the Emax [1, 2] was 285%, the pEC50 [1, 3] was 5.97 and the “MTECC24 CFHBEC- Amax %” value (delF508-CFTR) was 72.9%. It also gave a pEC50 (delF508-CFTR) of 6.93.
In the case of `COc1ccc(Cl)c(-c2nc(NS(=O)(=O)c3cccc(N4CCNCC4)n3)ccc2Cl)c1` [Example 158, N-(5-chloro-6-(2-chloro-5-methoxyphenyl)pyridin-2-yl)-6-(piperazin-1-yl)pyridine-2-sulfonamide hydrochloride], the Emax [1, 2] was 230%, the pEC50 [1, 3] was 5.38 and the “MTECC24 CFHBEC- Amax %” value (delF508-CFTR) was 76.6%. The pEC50 (delF508-CFTR) was 7.03.
`Cc1cccc(C)c1-c1nc(NS(=O)(=O)c2cccnc2N)ccc1Cl` [Example 74, 2-amino-N-(5-chloro-6-(2,6-dimethylphenyl)pyridin-2-yl)pyridine-3-sulfonamide] was tested, and the Emax [1, 2] was 158%, the pEC50 [1, 3] was 5.59 and the “MTECC24 CFHBEC- Amax %” value (delF508-CFTR) was 67.3%. It also gave a pEC50 (delF508-CFTR) of 6.55.
`Cc1ccccc1-c1nc(NS(=O)(=O)c2cccc(N3CCNC(=O)C3)n2)ccc1C(F)(F)F` [Example 190, 6-(3-oxopiperazin-1-yl)-N-(6-(o-tolyl)-5-(trifluoromethyl)pyridin-2-yl)pyridine-2-sulfonamide] was tested, and the Emax [1, 2] was 565%, the pEC50 [1, 3] was 5.47 and the “MTECC24 CFHBEC- Amax %” value (delF508-CFTR) was 64.5%. It also gave a pEC50 (delF508-CFTR) of 7.88.
For `Cc1ccc(C(F)(F)F)cc1-c1nc(NS(=O)(=O)c2cccc(N3CC(O)C3)n2)ccc1Cl` [Example 223, N-(5-chloro-6-(2-methyl-5-(trifluoromethyl)phenyl)pyridin-2-yl)-6-(3-hydroxyazetidin-1-yl)pyridine-2-sulfonamide], the Emax [1, 2] was 427%, the pEC50 [1, 3] was 5.72 and the “MTECC24 CFHBEC- Amax %” value (delF508-CFTR) was 59.9%. For the same compound, the pEC50 (delF508-CFTR) was 7.84.
`Cc1ccccc1-c1nc(NS(=O)(=O)c2cccc(N3CCN4C[C@@H](F)C[C@@H]4C3)n2)ccc1C(F)(F)F` [Example 138, 6-((7S,8aR)-7-fluorohexahydropyrrolo[1,2-a]pyrazin-2(1H)-yl)-N-(6-(o-tolyl)-5-(trifluoromethyl)pyridin-2-yl)pyridine-2-sulfonamide] was tested, and the Emax [1, 2] was 636%, the pEC50 [1, 3] was 6.17 and the “MTECC24 CFHBEC- Amax %” value (delF508-CFTR) was 108.4%. It also gave a pEC50 (delF508-CFTR) of 7.81.
`Cc1c(F)cccc1-c1nc(NS(=O)(=O)c2cccc(N3CC(O)C3)n2)ccc1Cl` [Example 232, N-(5-chloro-6-(3-fluoro-2-methylphenyl)pyridin-2-yl)-6-(3-hydroxyazetidin-1-yl)pyridine-2-sulfonamide] was tested, and the Emax [1, 2] was 349%, the pEC50 [1, 3] was 5.77 and the “MTECC24 CFHBEC- Amax %” value (delF508-CFTR) was 72.3%. For the same compound, the pEC50 (delF508-CFTR) was 7.50.
`Cc1cccc(C)c1-c1nc(NS(=O)(=O)c2cccc(N3CCn4cc(C(F)(F)F)nc4C3)n2)ccc1Cl` [Example 199, N-(5-chloro-6-(2,6-dimethylphenyl)pyridin-2-yl)-6-(2-(trifluoromethyl)-5,6-dihydroimidazo[1,2-a]pyrazin-7(8H)-yl)pyridine-2-sulfonamide] was tested, and the Emax [1, 2] was 700%, the pEC50 [1, 3] was 5.65 and the “MTECC24 CFHBEC- Amax %” value (delF508-CFTR) was 87.1%. It also gave a pEC50 (delF508-CFTR) of 7.42.
In the case of `Cc1ccccc1-c1nc(NS(=O)(=O)c2cccc(N[C@H]3CCOC[C@H]3O)n2)ccc1C(F)(F)F` (single isomer, unassigned) [Example 277], the Emax [1, 2] was 817%, the pEC50 [1, 3] was 5.70 and the “MTECC24 CFHBEC- Amax %” value (delF508-CFTR) was 85.1%. For the same compound, the pEC50 (delF508-CFTR) was 8.34.
For `Cc1c(F)cccc1-c1nc(NS(=O)(=O)c2cccc(N)n2)ccc1C(F)(F)F` [Example 7, 6-amino-N-(6-(3-fluoro-2-methylphenyl)-5-(trifluoromethyl)pyridin-2-yl)pyridine-2-sulfonamide], the Emax [1, 2] was 610%, the pEC50 [1, 3] was 5.79 and the “MTECC24 CFHBEC- Amax %” value (delF508-CFTR) was 66.8%. The pEC50 (delF508-CFTR) was 8.57.
In the case of `Cc1c(F)cccc1-c1nc(NS(=O)(=O)c2cccc(N3CCN(C4CC4)CC3)n2)ccc1C(F)(F)F` [Example 144, 6-(4-cyclopropylpiperazin-1-yl)-N-(6-(3-fluoro-2-methylphenyl)-5-(trifluoromethyl)pyridin-2-yl)pyridine-2-sulfonamide], the pEC50 [1, 3] was 5.73, the “MTECC24 CFHBEC- Amax %” value (delF508-CFTR) was 80.5% and the pEC50 (delF508-CFTR) was 8.70.
`Cc1ccccc1-c1nc(NS(=O)(=O)c2cccc(OC3CCC(C(=O)O)CC3)n2)ccc1C(F)(F)F` (stereo not shown) [Example 342, 4-((6-(N-(6-(o-tolyl)-5-(trifluoromethyl)pyridin-2-yl)sulfamoyl)pyridin-2-yl)oxy)cyclohexanecarboxylic Acid] was tested, and the Emax [1, 2] was 266%, the pEC50 [1, 3] was 5.72 and the “MTECC24 CFHBEC- Amax %” value (delF508-CFTR) was 85.8%. The pEC50 (delF508-CFTR) was 7.10.
With `Cc1c(F)cccc1-c1nc(NS(=O)(=O)c2cccc(N)n2)ccc1Cl` [Example 12, 6-amino-N-(5-chloro-6-(3-fluoro-2-methylphenyl)pyridin-2-yl)pyridine-2-sulfonamide] the Emax [1, 2] was 555%, the pEC50 [1, 3] was 5.88 and the “MTECC24 CFHBEC- Amax %” value (delF508-CFTR) was 85.2%. The pEC50 (delF508-CFTR) was 8.01.
In the case of `Cc1ccccc1-c1nc(NS(=O)(=O)c2cccc(N[C@@H]3COCC[C@@H]3O)n2)ccc1C(F)(F)F` (racemic) [Example 280, rac-6-{[(3RS,4SR)-4-hydroxyoxan-3-yl]amino}-N-[6-(2-methylphenyl)-5-(trifluoromethyl)pyridin-2-yl]pyridine-2-sulfonamide], the Emax [1, 2] was 844%, the pEC50 [1, 3] was 5.71 and the “MTECC24 CFHBEC- Amax %” value (delF508-CFTR) was 96.3%. The pEC50 (delF508-CFTR) was 8.60.
For `Cc1cccc(C)c1-c1nc(NS(=O)(=O)c2cccc(N3CCN(C(=O)OC(C)(C)C)CC3)n2)ccc1Cl` [Example 162, tert-butyl 4-(6-(N-(5-chloro-6-(2,6-dimethylphenyl)pyridin-2-yl)sulfamoyl)pyridin-2-yl)piperazine-1-carboxylate], the Emax [1, 2] was 662%, the pEC50 [1, 3] was 6.18 and the “MTECC24 CFHBEC- Amax %” value (delF508-CFTR) was 58.8%. The pEC50 (delF508-CFTR) was 7.75.
In the case of `Cc1c(F)cccc1-c1nc(NS(=O)(=O)c2cccc(N3CCN(C4CC4)CC3)n2)ccc1Cl` [Example 141, N-(5-chloro-6-(3-fluoro-2-methylphenyl)pyridin-2-yl)-6-(4-cyclopropylpiperazin-1-yl)pyridine-2-sulfonamide], the Emax [1, 2] was 938%, the pEC50 [1, 3] was 5.70 and the “MTECC24 CFHBEC- Amax %” value (delF508-CFTR) was 88.7%. It also gave a pEC50 (delF508-CFTR) of 8.07.
In the case of `Cc1ccc(OC(F)(F)F)cc1-c1nc(NS(=O)(=O)c2cccc(N)n2)ccc1Cl` [Example 89, 6-amino-N-(5-chloro-6-(2-methyl-5-(trifluoromethoxy)phenyl)pyridin-2-yl)pyridine-2-sulfonamide], the Emax [1, 2] was 91.5%, the pEC50 [1, 3] was 5.41 and the “MTECC24 CFHBEC- Amax %” value (delF508-CFTR) was 35.7%. It also gave a pEC50 (delF508-CFTR) of 7.40.
